# Measurements taken from patent US11006631B2, “Substituted pyrimidinyloxy pyridine derivatives as herbicides” (FMC Corporation, priority 2015, dated 2021).
# Columns and labels:
# Assay type in all cases: in vivo
# [1] = tested on: morningglory (Ipomoea spp.); experiment: Test A preemergence, morningglory; settings: 0 to 100 scale
# Text: (§1) Seeds of plant species selected from bamyardgrass (Echinochloa crus-galli), kochia (Kochia scoparia), ragweed (common ragweed, Ambrosia elatior), ryegrass, Italian (Italian ryegrass, Lolium multiflorum), foxtail, giant (giant foxtail, Setaria faberii), pigweed (Amaranthus retroflexus), crabgrass, large (large crabgrass, Digitaria sanguinalis), momingglory (Ipomoea spp.), velvetleaf (Abutilon theophrasti), wheat (Triticum aestivum), and corn (Zea mays) were planted into a blend of loam soil and sand and treated preemergence with a directed soil spray using test chemicals formulated in a non-phytotoxic solvent mixture which included a surfactant. At the same time, plants selected from these crop and weed species and also blackgrass (Alopecurus myosuroides), and galium (catchweed bedstraw, Galium aparine) were planted in pots containing the same blend of loam soil and sand and treated with postemergence applications of test chemicals formulated in the same manner. Plants ranged in height from 2 to 10 cm and were in the one- to two-leaf stage for the postemergence treatment. Treated plants and untreated controls were maintained in a greenhouse for approximately 10 days, after which time all treated plants were compared to untreated controls and visually evaluated for injury. Plant response ratings, summarized in Table A, are based on a 0 to 100 scale where 0 is no effect and 100 is complete control. A dash (-) response means no test result.
# [2] = tested on: barnyardgrass (Echinochloa crus-galli); experiment: Test A preemergence, barnyardgrass; settings: 0 to 100 scale
# Text: as §1
# [3] = tested on: velvetleaf (Abutilon theophrasti); experiment: Test A postemergence, velvetleaf; settings: 0 to 100 scale
# Text: as §1
# [4] = tested on: foxtail, giant (giant foxtail, Setaria faberii); experiment: Test A preemergence, foxtail, giant; settings: 0 to 100 scale
# Text: as §1
# [5] = tested on: barnyardgrass (Echinochloa crus-galli); experiment: Test A postemergence, barnyardgrass; settings: 0 to 100 scale
# Text: as §1
# corn (Zea mays) [6] = experiment: Test A preemergence, corn; settings: 0 to 100 scale
# Text: as §1
# [7] = tested on: pigweed (Amaranthus retroflexus); experiment: Test A postemergence, pigweed; settings: 0 to 100 scale
# Text: as §1
# [8] = tested on: pigweed (Amaranthus retroflexus); experiment: Test A preemergence, pigweed; settings: 0 to 100 scale
# Text: as §1
# rice (Oryza sativa) = experiment: Test B flooded paddy test, rice; settings: Flood, 250 g ai/ha; scale of 0 to 100
# Procedure: (§2) Plant species in the flooded paddy test selected from rice (Oryza sativa), sedge, umbrella (small-flower umbrella sedge, Cyperus difformis), ducksalad (Heteranthera limosa), and barnyardgrass (Echinochloa crus-galli) were grown to the 2-leaf stage for testing. At time of treatment, test pots were flooded to 3 cm above the soil surface, treated by application of test compounds directly to the paddy water, and then maintained at that water depth for the duration of the test. Treated plants and controls were maintained in a greenhouse for 13 to 15 days, after which time all species were compared to controls and visually evaluated. Plant response ratings, summarized in Table B, are based on a scale of 0 to 100 where 0 is no effect and 100 is complete control. A dash (-) response means no test result.
# [9] = tested on: wheat (Triticum aestivum); experiment: Test A preemergence, wheat; settings: 0 to 100 scale
# Text: as §1
# [10] = tested on: ducksalad (Heteranthera limosa); experiment: Test B flooded paddy test, ducksalad; settings: Flood, 250 g ai/ha; scale of 0 to 100
# Procedure: as §2
# [11] = tested on: velvetleaf (Abutilon theophrasti); experiment: Test A preemergence, velvetleaf; settings: 0 to 100 scale
# Text: as §1
# [12] = tested on: morningglory (Ipomoea spp.); experiment: Test A postemergence, morningglory; settings: 0 to 100 scale
# Text: as §1
# [13] = tested on: crabgrass, large (large crabgrass, Digitaria sanguinalis); experiment: Test A postemergence, crabgrass, large; settings: 0 to 100 scale
# Text: as §1
# [14] = tested on: crabgrass, large (large crabgrass, Digitaria sanguinalis); experiment: Test A preemergence, crabgrass, large; settings: 0 to 100 scale
# Text: as §1
# [15] = tested on: wheat (Triticum aestivum); experiment: Test A postemergence, wheat; settings: 0 to 100 scale
# Text: as §1
# [16] = tested on: barnyardgrass (Echinochloa crus-galli); experiment: Test B flooded paddy test, barnyardgrass; settings: Flood, 250 g ai/ha; scale of 0 to 100
# Procedure: as §2
# corn (Zea mays) [17] = experiment: Test A postemergence, corn; settings: 0 to 100 scale
# Text: as §1
# [18] = tested on: foxtail, giant (giant foxtail, Setaria faberii); experiment: Test A postemergence, foxtail, giant; settings: 0 to 100 scale
# Text: as §1
# [19] = tested on: sedge, umbrella (small-flower umbrella sedge, Cyperus difformis); experiment: Test B flooded paddy test, sedge, umbrella; settings: Flood, 250 g ai/ha; scale of 0 to 100
# Procedure: as §2
SMILES,"Plant response rating, Morningglory ([1]; 500 g ai/ha)","Plant response rating, Barnyardgrass ([2]; 125 g ai/ha)","Plant response rating, Barnyardgrass ([2]; 500 g ai/ha)","Plant response rating, Velvetleaf ([3]; 125 g ai/ha)","Plant response rating, Velvetleaf ([3]; 500 g ai/ha)","Plant response rating, Foxtail, Giant ([4]; 125 g ai/ha)","Plant response rating, Foxtail, Giant ([4]; 500 g ai/ha)","Plant response rating, Barnyardgrass ([5]; 125 g ai/ha)","Plant response rating, Barnyardgrass ([5]; 500 g ai/ha)","Plant response rating, Corn (corn (Zea mays) [6]; 125 g ai/ha)","Plant response rating, Corn (corn (Zea mays) [6]; 500 g ai/ha)","Plant response rating, Pigweed ([7]; 125 g ai/ha)","Plant response rating, Pigweed ([7]; 500 g ai/ha)","Plant response rating, Pigweed ([8]; 125 g ai/ha)","Plant response rating, Pigweed ([8]; 500 g ai/ha)","Plant response rating, Rice (rice (Oryza sativa))","Plant response rating, Wheat ([9]; 125 g ai/ha)","Plant response rating, Wheat ([9]; 500 g ai/ha)","Plant response rating, Ducksalad [10]","Plant response rating, Velvetleaf ([11]; 125 g ai/ha)",also measured
"Clc1cnc(Oc2cccnc2-n2cc(Br)cn2)nc1 [Compound 1, 2-[[2-(4-bromo-1H-pyrazol-1-yl)-3-pyridinyl]oxy]-5-chloropyrimidine]",0,10,50,20,50,20,80,0,10,0,0,90,100,50,90,0,0,10,60,10,"Plant response rating, Velvetleaf ([11]; 500 g ai/ha): 30; Plant response rating, Morningglory ([12]; 125 g ai/ha): 10; Plant response rating, Morningglory ([12]; 500 g ai/ha): 80; Plant response rating, Crabgrass, Large ([13]; 125 g ai/ha): 10; Plant response rating, Crabgrass, Large ([13]; 500 g ai/ha): 50; Plant response rating, Crabgrass, Large ([14]; 125 g ai/ha): 40; Plant response rating, Crabgrass, Large ([14]; 500 g ai/ha): 100; Plant response rating, Wheat ([15]; 125 g ai/ha): 10; Plant response rating, Wheat ([15]; 500 g ai/ha): 20; Plant response rating, Barnyardgrass [16]: 0; Plant response rating, Corn (corn (Zea mays) [17]; 125 g ai/ha): 10; Plant response rating, Corn (corn (Zea mays) [17]; 500 g ai/ha): 20; Plant response rating, Foxtail, Giant ([18]; 125 g ai/ha): 10; Plant response rating, Foxtail, Giant ([18]; 500 g ai/ha): 30; Plant response rating, Sedge, Umbrella [19]: 50"
"Clc1cnc(Oc2cccnc2-n2cc(Cl)cn2)nc1 [Compound 2, 5-chloro-2-[[2-(4-chloro-1H-pyrazol-1-yl)-3-pyridinyl]oxy]pyrimidine]",0,0,40,20,70,10,80,0,20,0,0,100,100,70,90,0,0,10,80,10,"Plant response rating, Morningglory ([1]; 125 g ai/ha): 0; Plant response rating, Velvetleaf ([11]; 500 g ai/ha): 30; Plant response rating, Morningglory ([12]; 125 g ai/ha): 40; Plant response rating, Morningglory ([12]; 500 g ai/ha): 80; Plant response rating, Crabgrass, Large ([13]; 125 g ai/ha): 10; Plant response rating, Crabgrass, Large ([13]; 500 g ai/ha): 40; Plant response rating, Crabgrass, Large ([14]; 500 g ai/ha): 100; Plant response rating, Wheat ([15]; 125 g ai/ha): 10; Plant response rating, Wheat ([15]; 500 g ai/ha): 20; Plant response rating, Barnyardgrass [16]: 0; Plant response rating, Corn (corn (Zea mays) [17]; 125 g ai/ha): 0; Plant response rating, Corn (corn (Zea mays) [17]; 500 g ai/ha): 10; Plant response rating, Foxtail, Giant ([18]; 125 g ai/ha): 0; Plant response rating, Foxtail, Giant ([18]; 500 g ai/ha): 30; Plant response rating, Sedge, Umbrella [19]: 75"
Cc1cnn(-c2ncccc2Oc2ncc(Cl)cn2)c1 [Compound 3],0,0,0,10,20,0,0,0,10,0,0,10,40,0,10,0,0,0,0,0,"Plant response rating, Morningglory ([1]; 125 g ai/ha): 0; Plant response rating, Velvetleaf ([11]; 500 g ai/ha): 0; Plant response rating, Morningglory ([12]; 125 g ai/ha): 20; Plant response rating, Morningglory ([12]; 500 g ai/ha): 30; Plant response rating, Crabgrass, Large ([13]; 125 g ai/ha): 10; Plant response rating, Crabgrass, Large ([13]; 500 g ai/ha): 10; Plant response rating, Crabgrass, Large ([14]; 125 g ai/ha): 0; Plant response rating, Crabgrass, Large ([14]; 500 g ai/ha): 0; Plant response rating, Wheat ([15]; 125 g ai/ha): 10; Plant response rating, Wheat ([15]; 500 g ai/ha): 10; Plant response rating, Barnyardgrass [16]: 0; Plant response rating, Corn (corn (Zea mays) [17]; 125 g ai/ha): 0; Plant response rating, Corn (corn (Zea mays) [17]; 500 g ai/ha): 10; Plant response rating, Foxtail, Giant ([18]; 125 g ai/ha): 0; Plant response rating, Foxtail, Giant ([18]; 500 g ai/ha): 10; Plant response rating, Sedge, Umbrella [19]: 60"
Cc1ccc(Oc2ncc(Cl)cn2)c(-n2cc(Br)cn2)n1 [Compound 10],10,0,0,50,80,0,20,0,0,0,0,10,50,0,40,0,0,0,0,0,"Plant response rating, Morningglory ([1]; 125 g ai/ha): 0; Plant response rating, Velvetleaf ([11]; 500 g ai/ha): 20; Plant response rating, Morningglory ([12]; 125 g ai/ha): 0; Plant response rating, Morningglory ([12]; 500 g ai/ha): 10; Plant response rating, Crabgrass, Large ([13]; 125 g ai/ha): 0; Plant response rating, Crabgrass, Large ([13]; 500 g ai/ha): 10; Plant response rating, Crabgrass, Large ([14]; 125 g ai/ha): 0; Plant response rating, Crabgrass, Large ([14]; 500 g ai/ha): 50; Plant response rating, Wheat ([15]; 125 g ai/ha): 0; Plant response rating, Wheat ([15]; 500 g ai/ha): 0; Plant response rating, Barnyardgrass [16]: 0; Plant response rating, Corn (corn (Zea mays) [17]; 125 g ai/ha): 0; Plant response rating, Corn (corn (Zea mays) [17]; 500 g ai/ha): 0; Plant response rating, Foxtail, Giant ([18]; 125 g ai/ha): 0; Plant response rating, Foxtail, Giant ([18]; 500 g ai/ha): 0; Plant response rating, Sedge, Umbrella [19]: 0"
